In patent publication US20250136606A1, “MODULATORS OF TRPML, THEIR COMPOSITIONS AND METHODS OF USE” (Caraway Therapeutics, Inc., priority 2021, published 2025):

Legend:
Format in all cases: cell-based
Conditions in all cases: fluorescent calcium assay
[1] = biological target: T1, TRPML3 (Homo sapiens, UniProt Q8TDD5); test: Fluorescent TRPML3 assay (performed as for TRPML1, substituting the TRPML3 subtype)
T1 construct: expressed in transfected cells
T1 sequence (Q8TDD5 1-553): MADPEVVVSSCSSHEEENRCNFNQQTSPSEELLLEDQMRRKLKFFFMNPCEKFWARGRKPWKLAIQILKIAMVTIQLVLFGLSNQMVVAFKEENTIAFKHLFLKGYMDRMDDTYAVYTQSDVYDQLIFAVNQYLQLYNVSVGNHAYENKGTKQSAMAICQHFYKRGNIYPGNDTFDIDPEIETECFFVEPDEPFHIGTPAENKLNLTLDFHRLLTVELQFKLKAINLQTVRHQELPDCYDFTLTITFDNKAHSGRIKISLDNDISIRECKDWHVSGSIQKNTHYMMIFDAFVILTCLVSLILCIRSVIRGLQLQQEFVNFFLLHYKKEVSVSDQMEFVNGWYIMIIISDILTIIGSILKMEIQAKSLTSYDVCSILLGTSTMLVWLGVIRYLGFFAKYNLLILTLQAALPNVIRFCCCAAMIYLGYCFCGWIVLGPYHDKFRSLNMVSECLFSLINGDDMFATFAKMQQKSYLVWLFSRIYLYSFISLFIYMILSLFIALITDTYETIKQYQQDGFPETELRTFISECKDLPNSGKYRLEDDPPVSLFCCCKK
Procedure, shortened: (§1)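 Doxycycline-induced (0.5 ug/mL) HEK-293 Trex cells stably expressing surface-directed mutant channel were loaded with 1 micromolar Fluo4-AM, resuspended in Ringer's with 10 mM calcium and added to compound plates. Fluorescence (ex 480, em 540 nm) gave percent activity versus on-plate controls; EC50 by non-linear regression.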

[2] = biological target: T2, TRPML2 (Homo sapiens, UniProt Q8IZK6); test: Fluorescent TRPML2 assay (performed as for TRPML1, substituting the TRPML2 subtype)
T2 construct: expressed in transfected cells
T2 sequence (Q8IZK6 1-566): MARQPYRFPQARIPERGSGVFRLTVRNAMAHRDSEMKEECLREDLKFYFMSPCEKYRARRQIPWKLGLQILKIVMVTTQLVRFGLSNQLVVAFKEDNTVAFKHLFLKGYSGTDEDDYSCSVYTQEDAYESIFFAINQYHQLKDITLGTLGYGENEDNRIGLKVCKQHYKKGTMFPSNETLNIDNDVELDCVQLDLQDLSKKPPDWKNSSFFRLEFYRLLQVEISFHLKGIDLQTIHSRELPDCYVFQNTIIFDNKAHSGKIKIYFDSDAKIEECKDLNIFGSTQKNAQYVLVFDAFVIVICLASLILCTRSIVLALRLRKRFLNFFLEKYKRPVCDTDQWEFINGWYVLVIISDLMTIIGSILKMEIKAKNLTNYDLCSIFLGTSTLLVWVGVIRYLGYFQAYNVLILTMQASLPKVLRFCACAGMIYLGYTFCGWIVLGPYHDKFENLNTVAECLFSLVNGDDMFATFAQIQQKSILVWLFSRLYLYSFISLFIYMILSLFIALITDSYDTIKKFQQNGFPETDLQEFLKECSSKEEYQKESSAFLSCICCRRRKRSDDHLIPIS
Procedure, shortened: as §1

[3] = biological target: TRPML1 (Homo sapiens, UniProt Q9GZU1); test: Fluorescent TRPML1 assay (Fluo4-AM calcium fluorescence in doxycycline-induced HEK-293 Trex cells)
TRPML1, sequence (Q9GZU1 whole entry L15A/L16A/L577A/L578A, form open): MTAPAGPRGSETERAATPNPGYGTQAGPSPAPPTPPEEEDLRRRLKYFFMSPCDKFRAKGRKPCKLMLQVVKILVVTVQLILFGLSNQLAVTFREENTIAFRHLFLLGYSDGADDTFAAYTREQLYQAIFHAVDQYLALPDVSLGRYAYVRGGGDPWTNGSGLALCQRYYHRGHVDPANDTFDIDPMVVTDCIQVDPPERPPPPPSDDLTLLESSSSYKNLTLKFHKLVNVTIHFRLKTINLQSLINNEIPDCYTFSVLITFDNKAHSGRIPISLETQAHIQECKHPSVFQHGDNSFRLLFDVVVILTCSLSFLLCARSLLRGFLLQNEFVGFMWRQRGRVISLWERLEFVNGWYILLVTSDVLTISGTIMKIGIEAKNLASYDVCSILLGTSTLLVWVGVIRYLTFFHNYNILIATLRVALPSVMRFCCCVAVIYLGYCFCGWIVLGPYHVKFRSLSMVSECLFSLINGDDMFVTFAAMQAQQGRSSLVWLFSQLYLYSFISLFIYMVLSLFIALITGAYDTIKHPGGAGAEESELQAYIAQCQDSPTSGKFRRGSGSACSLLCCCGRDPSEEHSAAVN
Procedure, shortened: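 First, expression of surface-targeted mutant human TRPML1 is induced in HEK-293 Trex cells with 0.5 ug/mL doxycycline the day before. Next, cells take up 1 micromolar Fluo4-AM in Ringer's with 0.1% Pluronic. Finally, they are added to compounds (6 nanomolar–20 micromolar final) in 10 mM calcium Ringer's and fluorescence is read.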

Compound	EC50 [1] [µM]	EC50 [2] [µM]	EC50 [3] [µM]
C[C@H]1CN(C(=O)OC(C)(C)C)CCN1c1ncnc2c1c(CN1CCCC1)cn2-c1cccc(C#N)c1 [Compound 400, tert-butyl (S)-4-(7-(3-cyanophenyl)-5-(pyrrolidin-1-ylmethyl)-7H-pyrrolo[2,3-d]pyrimidin-4-yl)-3-methylpiperazine-1-carboxylate]	0.5 to 2	> 2	0.5 to 2
C[C@H]1CN(C(=O)OC(C)(C)C)CCN1c1ncnc2c1c(N1CCCC1)cn2C1CCCC(F)(F)C1 (stereo partly drawn) [Compound 401, tert-butyl (3S)-4-(7-(3,3-difluorocyclohexyl)-5-(pyrrolidin-1-yl)-7H-pyrrolo[2,3-d]pyrimidin-4-yl)-3-methylpiperazine-1-carboxylate]	< 0.1	> 2	0.1 to 0.5
C[C@H]1CN(C(=O)OC(C)(C)C)CCN1c1ncnc2c1c(C1(C)CC1)cn2-c1cccc(C#N)c1 [Compound 402, tert-butyl (S)-4-(7-(3-cyanophenyl)-5-(1-methylcyclopropyl)-7H-pyrrolo[2,3-d]pyrimidin-4-yl)-3-methylpiperazine-1-carboxylate]	< 0.1	0.5 to 2	< 0.1
Cc1cc(C#N)cc(-n2cc(C3CC3)c3c(N4CCN(C(=O)OC(C)(C)C)C[C@@H]4C)ncnc32)n1 [Compound 403, tert-butyl (S)-4-(7-(4-cyano-6-methylpyridin-2-yl)-5-cyclopropyl-7H-pyrrolo[2,3-d]pyrimidin-4-yl)-3-methylpiperazine-1-carboxylate]	< 0.1	0.5 to 2	0.1 to 0.5
Cc1cc(C#N)cc(-n2cc(-c3ccccc3F)c3c(N4CCN(C(=O)OC(C)(C)C)C[C@@H]4C)ncnc32)n1 [Compound 404, tert-butyl (S)-4-(7-(4-cyano-6-methylpyridin-2-yl)-5-(2-fluorophenyl)-7H-pyrrolo[2,3-d]pyrimidin-4-yl)-3-methylpiperazine-1-carboxylate]	< 0.1	< 0.1	< 0.1
C[C@H]1CN(C(=O)OC(C)(C)C)CCN1c1ncnc2c1c(N1CCC(C)(C)C1)cn2-c1cc(C#N)ccn1 [Compound 405, tert-butyl (S)-4-(7-(4-cyanopyridin-2-yl)-5-(3,3-dimethylpyrrolidin-1-yl)-7H-pyrrolo[2,3-d]pyrimidin-4-yl)-3-methylpiperazine-1-carboxylate]	< 0.1	< 0.1	< 0.1
C[C@H]1CN(C(=O)OC(C)(C)C)CCN1c1ncnc2c1c(N1CCCC1)cn2[C@@H]1C[C@@H]2CC[C@H]1C2 [Compound 406, tert-butyl-(S)-4-(7-((1S,2R,4R)-bicyclo[2.2.1]heptan-2-yl)-5-(pyrrolidin-1-yl)-7H-pyrrolo[2,3-d]pyrimidin-4-yl)-3-methylpiperazine-1-carboxylate]	0.5 to 2	0.5 to 2	0.1 to 0.5
C[C@H]1CN(C(=O)OC(C)(C)C)CCN1c1ncnc2c1c(N1CCC1)cn2-c1cc(C#N)ccn1 [Compound 407, tert-butyl (S)-4-(5-(azetidin-1-yl)-7-(4-cyanopyridin-2-yl)-7H-pyrrolo[2,3-d]pyrimidin-4-yl)-3-methylpiperazine-1-carboxylate]	< 0.1	< 0.1	< 0.1
C[C@H]1CN(C(=O)OC(C)(C)C)CCN1c1ncnc2c1c(C1CC1)cn2C1CCCN(C#N)C1 (stereo partly drawn) [Compound 410, tert-butyl (3S)-4-(7-(1-cyanopiperidin-3-yl)-5-cyclopropyl-7H-pyrrolo[2,3-d]pyrimidin-4-yl)-3-methylpiperazine-1-carboxylate]	0.5 to 2	> 2	0.5 to 2
C[C@H]1CN(C(=O)OC(C)(C)C)CCN1c1ncnc2c1c(C1(C)CC1)cn2-c1cc(C#N)ccn1 [Compound 411, tert-butyl (S)-4-(7-(4-cyanopyridin-2-yl)-5-(1-methylcyclopropyl)-7H-pyrrolo[2,3-d]pyrimidin-4-yl)-3-methylpiperazine-1-carboxylate]	< 0.1	< 0.1	< 0.1
CC(C)(C)OC(=O)N1CCN(c2ncnc3c2c(-c2ccccc2F)cn3-c2cc(C#N)ccn2)C2CC21 (stereo not drawn) [Compound 412]	< 0.1	0.1 to 0.5	0.1 to 0.5
C[C@H]1CN(C(=O)OC(C)(C)C)CCN1c1ncnc2c1c(C1CC1)cn2-c1cc(C#N)n(C)n1 [Compound 413, tert-butyl (S)-4-(7-(5-cyano-1-methyl-1H-pyrazol-3-yl)-5-cyclopropyl-7H-pyrrolo[2,3-d]pyrimidin-4-yl)-3-methylpiperazine-1-carboxylate]	< 0.1	0.1 to 0.5	0.1 to 0.5

The remaining lines, values ahead:

EC50 [1] [µM]	EC50 [2] [µM]	EC50 [3] [µM]	Compound
0.5 to 2	> 2	0.5 to 2	C[C@H]1CN(C(=O)OC(C)(C)C)CCN1c1ncnc2c1c(C1CC1)cn2C1CC(C#N)C1 (stereo partly drawn) [Compound 414, tert-butyl (S)-4-(7-(3-cyanocyclobutyl)-5-cyclopropyl-7H-pyrrolo[2,3-d]pyrimidin-4-yl)-3-methylpiperazine-1-carboxylate]
< 0.1	0.1 to 0.5	< 0.1	C[C@H]1CN(C(=O)OC(C)(C)C)CCN1c1ncnc2c1c(N(C)C)cn2-c1cccc(Cl)c1 [Compound 415]
< 0.1	< 0.1	< 0.1	C[C@@H]1CN(c2ncnc3c2c(N2CCCC2)cn3-c2cc(C#N)ccn2)CCN1C(=O)OC(C)(C)C [Compound 416, tert-butyl (R)-4-(7-(4-cyanopyridin-2-yl)-5-(pyrrolidin-1-yl)-7H-pyrrolo[2,3-d]pyrimidin-4-yl)-2-methylpiperazine-1-carboxylate]
< 0.1	0.1 to 0.5	< 0.1	C[C@@H]1CN(c2cn(-c3cc(C#N)ccn3)c3ncnc(N4CCN(C(=O)OC(C)(C)C)C[C@@H]4C)c23)CCO1 [Compound 417, tert-butyl (S)-4-(7-(4-cyanopyridin-2-yl)-5-((R)-2-methylmorpholino)-7H-pyrrolo[2,3-d]pyrimidin-4-yl)-3-methylpiperazine-1-carboxylate]
< 0.1	0.1 to 0.5	< 0.1	C[C@@H]1CN(c2nccc3c2c(C2CC2)cn3-c2cc(F)cc(F)c2)CCN1C(=O)OC(C)(C)C [Compound 418, tert-butyl (R)-4-(3-cyclopropyl-1-(3,5-difluorophenyl)-1H-pyrrolo[3,2-c]pyridin-4-yl)-2-methylpiperazine-1-carboxylate]
< 0.1	0.1 to 0.5	< 0.1	C[C@@H]1COCCN1c1cn(-c2cc(C#N)ccn2)c2ncnc(N3CCN(C(=O)OC(C)(C)C)C[C@@H]3C)c12 [Compound 419, tert-butyl (S)-4-(7-(4-cyanopyridin-2-yl)-5-((R)-3-methylmorpholino)-7H-pyrrolo[2,3-d]pyrimidin-4-yl)-3-methylpiperazine-1-carboxylate]
< 0.1	< 0.1	< 0.1	CC(C)(C)OC(=O)N1CCN(c2ncnc3c2c(-c2ccccc2F)cn3-c2cc(C#N)ccn2)C(C)(C)C1 [Compound 420, tert-butyl 4-(7-(4-cyanopyridin-2-yl)-5-(2-fluorophenyl)-7H-pyrrolo[2,3-d]pyrimidin-4-yl)-3,3-dimethylpiperazine-1-carboxylate]
< 0.1	< 0.1	0.1 to 0.5	CC(C)(C)OC(=O)N1CCN(c2ncnc3c2c(C2CC2)cn3-c2cc(C#N)ccn2)C(C)(C)C1 [Compound 421, tert-butyl 4-(7-(4-cyanopyridin-2-yl)-5-cyclopropyl-7H-pyrrolo[2,3-d]pyrimidin-4-yl)-3,3-dimethylpiperazine-1-carboxylate]
